According to article PMC6934184, “Selective DNA-PKcs inhibition extends the therapeutic index of localized radiotherapy and chemotherapy” (The Journal of Clinical Investigation, 2019):

Target: T1, LYN A (Homo sapiens, UniProt P07948)
T1 construct: purchased Thermo Fisher Scientific (Life Technologies) SelectScreen
Test: SelectScreen Z'LYTE
Assay type: biochemical
In short: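 NU5455 was profiled across the SelectScreen Broad panel of kinase activity and binding assays. Z'LYTE reactions such as CSF1R ran at apparent Km ATP, while the Adapta CAMK1 assay used ATP listed as 10. Values are given as percent.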

T1 sequence (P07948 whole entry): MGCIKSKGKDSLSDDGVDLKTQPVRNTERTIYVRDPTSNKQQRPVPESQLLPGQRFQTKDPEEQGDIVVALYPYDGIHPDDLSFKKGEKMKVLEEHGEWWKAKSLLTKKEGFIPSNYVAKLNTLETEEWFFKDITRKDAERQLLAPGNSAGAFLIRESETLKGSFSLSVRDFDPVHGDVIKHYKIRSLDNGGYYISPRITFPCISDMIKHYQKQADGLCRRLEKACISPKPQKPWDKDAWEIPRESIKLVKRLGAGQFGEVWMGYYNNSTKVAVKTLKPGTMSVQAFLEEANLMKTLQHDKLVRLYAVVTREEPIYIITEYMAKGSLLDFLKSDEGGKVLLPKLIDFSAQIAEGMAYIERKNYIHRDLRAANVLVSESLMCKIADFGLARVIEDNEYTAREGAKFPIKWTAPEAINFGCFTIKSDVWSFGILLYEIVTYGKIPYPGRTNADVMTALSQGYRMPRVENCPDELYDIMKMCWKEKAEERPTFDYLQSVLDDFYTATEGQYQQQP

## CN(C(=O)CN1CCOCC1)c1ccc2sc3c(-c4cccc5c(=O)cc(N6CC7CCC(C6)O7)oc45)cccc3c2c1 [NU5455]
  inhibition at 1 µM: 15.2%
